Read-outs that look alike come from different tables or passages of the source.
Columns and labels:
[1] = molecular target: MDM2 binding domain (1–118) / PMDM6-F peptide (p53-MDM2) (Homo sapiens, UniProt Q00987); assay: fluorescence polarization (FP) p53-MDM2 binding assay
Method: A well-established fluorescence polarization (FP) binding assay was performed to measure the inhibitory activity (Ki) of designed compounds. […] The two phenyl rings of (R)-7c were located in the Phe19 and Trp23 pockets respectively and the propargyl group was partly inserted into the Leu26 pocket.
The dose-dependent binding experiments were carried out with serial dilution in DMSO of compounds. […] The Ki values were determined from a plot using nonlinear least-squares analysis. And curve fitting was performed using GraphPad Prism software.

[2] = test system: A549 (wild-type p53); assay: in vitro antitumor activity, MTT; format: cell-based; details: Homo sapiens, read-out: IC50 A549 (wt-p53)
Method: (§1) To investigate the in vitro antiproliferative activity of the designed p53-MDM2 inhibitors, four human tumor cell lines, namely U-2 OS (wild-type p53), A549 (wild-type p53), Saos-2 (p53 null), and NCI-H1299 (p53 null), were chosen for assaying.
(§2) The cellular growth inhibitory activity was determined using four human cancer cell lines [U-2 OS (wild-type p53), A549 (wild-type p53), Saos-2 (p53 null), and NCI-H1299 (p53 null)]. 5–6 × 10^4 cells per well were plated in 96-well plates. After culturing for 24 h, test compounds were added onto triplicate wells with different concentrations and 0.1% DMSO for control. After 72 h of incubation, 20 μL of MTT (3-[4,5-dimethylthiazol-2-yl]-2,5-diphenyltetrazoliumbromide) solution (5 mg/mL) was added to each well, and after the samples were shaken for 1min the plate was incubated further for 4 h at 37 °C. […] were dissolved with 100 μL of DMSO. The absorbance (OD) was quantitated with microplate using Biotek Synergy H2 at 570 nm (BioTek, Winooski, VT, USA). Wells containing no drugs were used as blanks.

[3] = test system: NCI-H1299 (p53 null); assay: in vitro antitumor activity, MTT; format: cell-based; details: Homo sapiens, read-out: IC50 NCI-H1299 (p53 null)
Method: as §1, §2

[4] = test system: Saos-2 (p53 null); assay: in vitro antitumor activity, MTT; format: cell-based; details: Homo sapiens, read-out: IC50 Saos-2 (p53 null)
Method: as §1, §2

[5] = test system: U-2 OS (wild-type p53); assay: in vitro antitumor activity, MTT; format: cell-based, human; details: for IC50: Homo sapiens, U2OS, 72 h, read-out: IC50 U-2 OS (wt-p53)
Method: as §1, §2

[6] = test system: four human tumor cell lines (U-2 OS, A549, Saos-2, NCI-H1299); assay: in vitro antitumor activity, MTT, four cell lines together; format: cell-based
Method: as §1, §2

[7] = parameters: method as in PMID 16630722, PMID 16600594, PMID 16290148; details: cited from earlier work
[8] = FP binding assay, MDM2 (1–118) 10 nM, PMDM6-F 10 nM, read-out: Ki

Sequence of MDM2 binding domain (1–118) / PMDM6-F peptide (p53-MDM2) (Q00987 1-118): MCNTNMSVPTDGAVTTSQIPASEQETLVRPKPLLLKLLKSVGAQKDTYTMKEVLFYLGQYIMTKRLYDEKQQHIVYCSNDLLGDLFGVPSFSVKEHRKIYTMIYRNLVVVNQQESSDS

SMILES | Ki [1, 8] | IC50 ([2]; A549, MTT, 72 h) | IC50 ([3]; NCI-H1299, MTT, 72 h) | IC50 ([4]; SAOS-2, MTT, 72 h) | IC50 ([5]; MTT) | IC50 [5] | also measured
C#CCN1C(=O)C(c2ccc(Cl)cc2)N(CC#C)S(=O)(=O)c2ccccc21 (stereo not drawn) [Compound 7a, 3-(4-Chlorophenyl)-2,5-di(prop-2-yn-1-yl)-2,3-dihydrobenzo[f][1,2,5]thiadiazepin-4(5H)-one 1,1-dioxide] | 0.43 µM | > 100 µM | > 100 µM | > 100 µM | > 100 µM |  | 
C#CCN1C(c2ccc(Cl)cc2)C(=O)N(C=C=C)c2ccccc2S1(=O)=O (stereo not drawn) [Compound 7b, 3-(4-Chlorophenyl)-2-(prop-2-yn-1-yl)-5-(propa-1,2-dien-1-yl)-2,3-dihydrobenzo[f][1,2,5]thiadiazepin-4(5H)-one 1,1-dioxide] | 0.36 µM | > 100 µM | > 100 µM | > 100 µM | > 100 µM |  | 
C#CCN1C(c2ccc(Cl)cc2)C(=O)Nc2ccccc2S1(=O)=O (stereo not drawn) [Compound 7c, 3-(4-Chlorophenyl)-2-(prop-2-yn-1-yl)-2,3-dihydrobenzo[f][1,2,5]thiadiazepin-4(5H)-one 1,1-dioxide] | 0.26 µM | > 100 µM | > 100 µM | > 100 µM | > 100 µM |  | 
N#CCN1C(c2ccc(Cl)cc2)C(=O)Nc2ccccc2S1(=O)=O (stereo not drawn) [Compound 7d, 2-(3-(4-Chlorophenyl)-1,1-dioxido-4-oxo-4,5-dihydrobenzo[f][1,2,5]thiadiazepin-2(3H)-yl)acetonitrile] | > 100 µM | 92.3 µM | > 100 µM | > 100 µM | > 100 µM |  | 
O=C1Nc2ccccc2S(=O)(=O)N(Cc2cccc(F)c2)C1c1ccc(Cl)cc1 (stereo not drawn) [Compound 7e, 3-(4-Chlorophenyl)-2-(3-fluorobenzyl)-2,3-dihydrobenzo[f][1,2,5]thiadiazepin-4(5H)-one 1,1-dioxide] | > 100 µM | > 100 µM | > 100 µM | > 100 µM | 90.5 µM |  | 
O=C1Nc2ccccc2S(=O)(=O)N(Cc2c(F)cccc2F)C1c1ccc(Cl)cc1 (stereo not drawn) [Compound 7f, 3-(4-Chlorophenyl)-2-(2,6-difluorobenzyl)-2,3-dihydrobenzo[f][1,2,5]thiadiazepin-4(5H)-one 1,1-dioxide] | 78 µM | > 100 µM | > 100 µM | > 100 µM | > 100 µM |  | 
O=C1Nc2ccccc2S(=O)(=O)N(Cc2ccccc2)C1c1ccc(Cl)cc1 (stereo not drawn) [Compound 7g, 2-Benzyl-3-(4-chlorophenyl)-2,3-dihydrobenzo[f][1,2,5]thiadiazepin-4(5H)-one 1,1-dioxide] | 8.14 µM | > 100 µM | > 100 µM | > 100 µM | > 100 µM |  | 
O=C1Nc2ccccc2S(=O)(=O)N=C1c1ccc(Cl)cc1 [Compound 8, 3-(4-Chlorophenyl)benzo[f][1,2,5]thiadiazepin-4(5H)-one 1,1-dioxide] | 11.9 µM | > 100 µM | > 100 µM | > 100 µM | > 100 µM |  | p53-MDM2 inhibitory activity (in words) ([1]; FP binding assay): dramatic decrease of the inhibitory activity
O=C1Nc2ccc(Cl)cc2C(c2ccccc2)=NC1c1ccc(Cl)cc1 (stereo not drawn) [Compound 13, 7-Chloro-3-(4-chlorophenyl)-5-phenyl-1H-benzo[e][1,4]diazepin-2(3H)-one] |  |  |  |  |  | 3.12 µM | Ki [1]: 0.2 µM; IC50 ([2]; A549, 72 h): 9.16 µM; IC50 ([3]; NCI-H1299, 72 h): 6.11 µM; IC50 ([4]; SAOS-2, 72 h): 3.01 µM
S=C1Nc2ccc(Cl)cc2C(c2ccccc2)=NC1c1ccc(Cl)cc1 (stereo not drawn) [Compound 14, 7-Chloro-3-(4-chlorophenyl)-5-phenyl-1H-benzo[e][1,4]diazepine-2(3H)-thione] |  |  |  |  |  | 5.31 µM | Ki [1]: 8.76 µM; IC50 ([2]; A549, 72 h): 24.1 µM; IC50 ([3]; NCI-H1299, 72 h): 15.6 µM; IC50 ([4]; SAOS-2, 72 h): 3.67 µM
Clc1ccc(C2N=C(c3ccccc3)c3cc(Cl)ccc3-n3cnnc32)cc1 (stereo not drawn) [Compound 16, 8-Chloro-4-(4-chlorophenyl)-6-phenyl-4H-benzo[f][1,2,4]] |  |  |  |  |  | 4.17 µM | Ki [1]: 1.22 µM; IC50 ([2]; A549, 72 h): 7.62 µM; IC50 ([3]; NCI-H1299, 72 h): 5.5 µM; IC50 ([4]; SAOS-2, 72 h): 3.55 µM; antiproliferative activity against U-2 OS relative to nutlin-3 ([5]; better than nutlin-3): about 4 fold
Clc1ccc(C2NC(c3ccccc3)c3cc(Cl)ccc3-n3cnnc32)cc1 (stereo not drawn) [Compound 17, 8-Chloro-4-(4-chlorophenyl)-6-phenyl-5,6-dihydro-4H-benzo[f][1,2,4]triazolo[4,3-a][1,4]diazepine] |  |  |  |  |  | 34 µM | Ki [1]: 2.8 µM; IC50 ([2]; A549, 72 h): 26.8 µM; IC50 ([3]; NCI-H1299, 72 h): 34.6 µM; IC50 ([4]; SAOS-2, 72 h): 24.8 µM; in vitro antitumor activity (in words) [6]: poor activity
COc1ccc(C2=N[C@@H](c3ccc(Cl)cc3)[C@@H](c3ccc(Cl)cc3)N2C(=O)N2CCNC(=O)C2)c(OC(C)C)c1 [Nutlin-3, reference compound] |  |  |  |  |  | 16.3 µM | 
O=C(O)[C@H](c1ccc(Cl)cc1)N1C(=O)c2cc(I)ccc2NC(=O)[C@@H]1c1ccc(Cl)cc1 [TDP222669] |  |  |  |  |  |  | bioavailability [7]: limited bioavailability; in vivo clearance [7]: rapid in vivo clearance

Reference: article PMC4200789, “Design, Synthesis and Biological Evaluation of Sulfamide and Triazole Benzodiazepines as Novel p53-MDM2 Inhibitors” (International Journal of Molecular Sciences, 2014)
